Activity calls are given as the source filed them.
Columns and labels:
[1] = inhibitors of firefly luciferase expression or activity, dose response, H4 neuroglioma cells, luminescence (AID 1990); assay type: functional, cell-based
[2] = Luminescence Cell-Based Dose Response HTS to Identify Inhibitors of 5'UTR Stem-Loop Driven Prion Protein mRNA Translation in H4 Neuroglioblastoma Cells. [Related pubchem assays: 1827 (Project Summary), 1813 (Primary HTS)]; assay type: functional
[3] = inhibitors of SNCA 5'UTR-driven reporter translation, confirmation, H4 neuroglioma cells, luminescence (AID 1988); assay type: functional, cell-based
[4] = inhibitors of Vif binding to APOBEC3G peptide, primary screen, biochemical, TR-FRET, GST-Vif 1-94, biotin-A3G peptide, dose response retest (AID 1117319); assay type: functional;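 note: TR-FRET signal of purified GST-Vif binding a biotinylated A3G peptide; inhibitors lower the FRET signal by blocking Vif and A3G binding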
[5] = Vero cell cytotoxicity, dose response, cytotoxicity control for Vif-APOBEC3G degradation inhibitor project, Vero cells (AID 1117358); assay type: functional; details: Human immunodeficiency virus 1, Vero
HEK293 [6] = assay: cells; details: Homo sapiens
HEK293 [7] = assay: cells; details: Homo sapiens; remark: listed apart in the source
[8] = target: Voltage-gated inwardly rectifying potassium channel KCNH2 (Homo sapiens, UniProt Q12809); assay: hERG protection from proarrhythmic block, potency, dose response, cell-based, thallium flux (AID 2121); assay type: ADME
Hexokinase = target: T1, Hexokinase (Trypanosoma brucei, UniProt Q38C41); assay: Confirmation assay for inhibitors of Trypanosoma brucei hexokinase 1-Analogue-first series. [Related pubchem assays (depositor defined):AID1430, AID1632, AID2516, AID2560, AID2579, AID2600, AID449725, AID492951]; assay type: functional
T1 sequence (Q38C41 whole entry): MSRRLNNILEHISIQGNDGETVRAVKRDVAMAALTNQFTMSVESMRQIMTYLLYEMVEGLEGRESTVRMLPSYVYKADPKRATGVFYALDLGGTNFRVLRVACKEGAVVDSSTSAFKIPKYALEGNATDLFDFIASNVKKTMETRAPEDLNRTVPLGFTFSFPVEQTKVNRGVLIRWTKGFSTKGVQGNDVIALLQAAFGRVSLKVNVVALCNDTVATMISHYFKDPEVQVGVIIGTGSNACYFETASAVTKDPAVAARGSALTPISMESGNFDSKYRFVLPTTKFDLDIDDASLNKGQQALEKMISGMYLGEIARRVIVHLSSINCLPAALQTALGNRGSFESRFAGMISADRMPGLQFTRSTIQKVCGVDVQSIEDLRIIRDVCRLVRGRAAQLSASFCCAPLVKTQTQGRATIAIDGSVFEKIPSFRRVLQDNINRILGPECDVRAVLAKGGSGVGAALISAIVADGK

[9] = target: Mitogen-activated protein kinase 10 (Homo sapiens, UniProt P53779); assay: Dose response biochemical screening assay for inhibitors of c-Jun N-Terminal Kinase 3 (JNK3). [Related pubchem assays: 746 ]
Leucine aminopeptidase = target: T2, Leucine aminopeptidase (Plasmodium falciparum 3D7, UniProt Q8IL11); assay: P. falciparum M17LAP inhibitors, primary screen, biochemical, fluorogenic H-Leu-NHMec substrate, 1536-well (AID 1619); assay type: functional
T2 sequence (Q8IL11 whole entry): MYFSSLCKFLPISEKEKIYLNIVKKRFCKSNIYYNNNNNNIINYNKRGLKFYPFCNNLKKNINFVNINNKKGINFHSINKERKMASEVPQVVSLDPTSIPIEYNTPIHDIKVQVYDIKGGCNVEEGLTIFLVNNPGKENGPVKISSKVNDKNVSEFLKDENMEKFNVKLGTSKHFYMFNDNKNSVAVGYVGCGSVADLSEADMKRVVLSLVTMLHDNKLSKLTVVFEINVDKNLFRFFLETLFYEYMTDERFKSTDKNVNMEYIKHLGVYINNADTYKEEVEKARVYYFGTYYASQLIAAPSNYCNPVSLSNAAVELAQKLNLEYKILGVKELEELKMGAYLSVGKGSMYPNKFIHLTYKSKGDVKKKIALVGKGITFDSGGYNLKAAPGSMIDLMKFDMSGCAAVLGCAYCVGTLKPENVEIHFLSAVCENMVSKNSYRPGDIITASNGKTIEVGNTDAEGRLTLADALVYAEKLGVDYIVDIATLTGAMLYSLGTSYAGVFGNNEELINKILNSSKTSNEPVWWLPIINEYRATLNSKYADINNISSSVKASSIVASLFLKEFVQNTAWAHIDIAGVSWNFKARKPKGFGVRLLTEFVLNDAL

[10] = target: Ubiquitin carboxyl-terminal hydrolase BAP1 (Homo sapiens, UniProt Q92560); assay: BAP1 deubiquitinase inhibitors, dose response, biochemical (AID 714); assay type: functional
Estrogen receptor = Estrogen receptor (Homo sapiens, UniProt P03372);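 note: potency for inhibiting coactivator peptide recruitment to the receptor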
Estrogen receptor beta = Estrogen receptor beta (Homo sapiens, UniProt Q92731); assay: ERβ–SRC-3 coactivator interaction inhibitors, confirmation, orthogonal assay, biochemical, ELISA, streptavidin-HRP readout (AID 1060)
[11] = target: T3, Carboxy-terminal domain RNA polymerase II polypeptide A small phosphatase 1 (Homo sapiens, UniProt Q9GZU7); assay: inhibitors of CTDSP1, concentration-response testing, biochemical assay, absorbance-based, actives from ultra-high-throughput screening (AID 540297); assay type: functional
T3 sequence (Q9GZU7 whole entry): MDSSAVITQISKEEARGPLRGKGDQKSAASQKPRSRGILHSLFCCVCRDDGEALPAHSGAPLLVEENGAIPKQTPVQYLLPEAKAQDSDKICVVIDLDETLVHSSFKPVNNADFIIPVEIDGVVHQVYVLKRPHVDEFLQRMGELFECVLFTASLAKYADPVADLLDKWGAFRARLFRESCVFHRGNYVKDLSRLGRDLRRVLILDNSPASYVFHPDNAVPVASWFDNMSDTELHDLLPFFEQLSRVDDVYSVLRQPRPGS

[12] = target: Serine/threonine-protein phosphatase PP1-alpha catalytic subunit (Homo sapiens, UniProt P62136); assay: PP1 phosphatase inhibitors, dose response, biochemical, fluorescence (AID 2394)
[13] = growth suppression of PTEN-null colon cells, dose response, cell-based, HCT116 PTEN knockout (AID 1047); assay type: functional;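 note: HCT116 colon tumor cells with PTEN knocked out; cells exposed to compound for 60 hours before readout; potency for loss of cell viability measured by luminescence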
[14] = target: Serine/threonine-protein phosphatase (Homo sapiens, UniProt Q9BPW0); assay: PP5 phosphatase inhibitors, dose response, biochemical, fluorescence (AID 2395)
[15] = growth suppression of beta-catenin-knockout colon cells, dose response, cell-based, HCT116, human colon tumor (AID 1045); assay type: functional;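 note: HCT116 colon tumor cells with beta catenin knocked out; cells exposed to compound for 60 hours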
[16] = target: T4, Sphingosine 1-phosphate receptor 2 (Homo sapiens, UniProt O95136); assay: Dose Response Cell Based Assay for Agonists of the S1P2 Receptor. [Related pubchem assays: 729, 736, 843 ]; assay type: functional
Protein RecA = target: T5, Protein RecA (Mycobacterium tuberculosis, UniProt P9WHJ3); assay: Fluorescence Cell-Free Homogeneous Dose Retest to Identify Inhibitors of RecA-Intein Splicing Activity. [Related pubchem assays (depositor defined):AID2097, AID2223, AID489010, AID492950]; assay type: functional
T5 sequence (P9WHJ3 whole entry): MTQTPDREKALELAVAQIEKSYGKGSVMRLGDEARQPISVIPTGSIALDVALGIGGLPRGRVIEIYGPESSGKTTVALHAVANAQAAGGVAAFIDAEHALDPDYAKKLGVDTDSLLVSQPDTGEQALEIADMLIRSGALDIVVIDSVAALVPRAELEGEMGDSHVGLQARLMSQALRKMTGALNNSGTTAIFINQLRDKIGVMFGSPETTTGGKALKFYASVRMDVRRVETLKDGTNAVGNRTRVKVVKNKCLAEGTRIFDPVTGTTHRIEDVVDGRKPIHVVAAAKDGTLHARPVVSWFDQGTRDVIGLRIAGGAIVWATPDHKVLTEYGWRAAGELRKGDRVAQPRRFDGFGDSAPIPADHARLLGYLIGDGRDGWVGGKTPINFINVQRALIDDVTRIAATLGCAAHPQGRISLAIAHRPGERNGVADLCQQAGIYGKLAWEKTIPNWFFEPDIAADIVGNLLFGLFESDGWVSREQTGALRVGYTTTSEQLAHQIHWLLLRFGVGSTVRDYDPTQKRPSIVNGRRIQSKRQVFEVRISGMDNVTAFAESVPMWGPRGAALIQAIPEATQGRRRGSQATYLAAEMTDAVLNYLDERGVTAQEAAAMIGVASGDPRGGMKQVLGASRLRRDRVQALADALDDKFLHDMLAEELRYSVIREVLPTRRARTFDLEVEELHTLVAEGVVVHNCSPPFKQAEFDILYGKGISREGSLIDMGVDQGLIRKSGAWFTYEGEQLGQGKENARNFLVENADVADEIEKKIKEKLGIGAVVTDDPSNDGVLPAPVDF

[17] = target: T4, Sphingosine 1-phosphate receptor 2; assay: Dose Response Cell Based Assay for Antagonists of the S1P2 Receptor. [Related pubchem assays: 856, 736 ]; assay type: functional
INS1 = assay: beta cell apoptosis inhibitors, cytokine rescue, dose response, luminescence, retest (AID 449756); assay type: functional, cell-based; details: Rattus norvegicus;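 note: cell death triggered by IL-1 beta plus TNF-alpha plus IFN-gamma mixture; protective hits raise ATP signal compared with cytokine alone wells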
[18] = target: T6, COUP transcription factor 2 (Homo sapiens, UniProt P24468); assay: Luminescence-based cell-based high throughput dose response assay to identify inhibitors of COUP-TFII (NR2F2).; assay type: functional;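 note: HEK293 cells transiently cotransfected with COUP-TFII expression vector and reporter; luciferase reporter luminescence driven by COUP-TFII from the pX2-168 reporter plasmid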
T6 sequence (P24468 whole entry): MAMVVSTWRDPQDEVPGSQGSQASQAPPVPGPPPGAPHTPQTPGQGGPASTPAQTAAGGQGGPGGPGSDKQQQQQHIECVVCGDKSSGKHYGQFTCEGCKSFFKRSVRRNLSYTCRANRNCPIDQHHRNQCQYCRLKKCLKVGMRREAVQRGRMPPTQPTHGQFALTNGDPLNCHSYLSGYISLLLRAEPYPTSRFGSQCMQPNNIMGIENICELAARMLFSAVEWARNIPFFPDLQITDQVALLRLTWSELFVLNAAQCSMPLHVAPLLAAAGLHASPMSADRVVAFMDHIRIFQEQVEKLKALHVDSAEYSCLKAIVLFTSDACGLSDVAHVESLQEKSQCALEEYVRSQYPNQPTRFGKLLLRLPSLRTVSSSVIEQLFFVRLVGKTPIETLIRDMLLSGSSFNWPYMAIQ

[19] = Luminescent dose response cell-based high throughput screening assay for inhibitors of the Janus kinase 2 mutant JAK2V617F. [Related pubchem assays: 1446 (Primary screen.), 1521 (Confirmation assay.), 1486 (Counter screen.)]; assay type: functional
[20] = inhibitors of intracellular T. cruzi replication, confirmation, NIH3T3 host cells, beta-gal luminescence (AID 2044); assay type: functional, cell-based;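 note: intracellular parasites grown in NIH/3T3 mouse fibroblasts as host cells; luminescent beta-galactosidase reporter signal from transgenic T. cruzi replicating inside host cells; inhibitors lower the luminescence signal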
[21] = cytotoxicity toward NIH3T3 fibroblasts, dose response, counter-screen, cell-based, ATP luminescence, mouse fibroblasts (AID 2010); assay type: functional;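 note: cells exposed to compound for about 90 hours before reading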
[22] = THP-1 cell cytotoxicity, dose response, cytotoxicity control for non-replicating M. tuberculosis project (AID 489025); assay type: functional
[23] = Vero E6 cell cytotoxicity, dose response, cytotoxicity control for non-replicating M. tuberculosis project, secondary assay (AID 492998); assay type: functional, VeroE6; details: Vero C1008
cells = assay type: functional
HEK293 [24] = assay: inhibitors of LMP1-driven NF-kB reporter, dose response, cell-based, HEK293, luciferase, cherry-pick (AID 588343); assay type: functional; details: Homo sapiens
[25] = target: T7, Low molecular weight phosphotyrosine protein phosphatase (Homo sapiens, UniProt P24666); assay: LMPTP phosphatase inhibitors, dose response, biochemical, OMFP substrate, fluorescence intensity, set 2 (AID 743307); assay type: functional
T7 sequence (P24666 whole entry): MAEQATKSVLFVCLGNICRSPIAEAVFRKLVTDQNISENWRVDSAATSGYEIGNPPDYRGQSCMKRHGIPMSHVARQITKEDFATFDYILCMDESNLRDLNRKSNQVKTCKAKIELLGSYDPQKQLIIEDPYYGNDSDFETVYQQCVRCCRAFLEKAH

[26] = target: T7, Low molecular weight phosphotyrosine protein phosphatase; assay: LMPTP phosphatase inhibitors, colorimetric pNPP readout, dose response, orthogonal assay, biochemical, absorbance, pNPP substrate, LMPTP-A isoform, set 2 (AID 743308); assay type: functional

T4 sequence (O95136 whole entry): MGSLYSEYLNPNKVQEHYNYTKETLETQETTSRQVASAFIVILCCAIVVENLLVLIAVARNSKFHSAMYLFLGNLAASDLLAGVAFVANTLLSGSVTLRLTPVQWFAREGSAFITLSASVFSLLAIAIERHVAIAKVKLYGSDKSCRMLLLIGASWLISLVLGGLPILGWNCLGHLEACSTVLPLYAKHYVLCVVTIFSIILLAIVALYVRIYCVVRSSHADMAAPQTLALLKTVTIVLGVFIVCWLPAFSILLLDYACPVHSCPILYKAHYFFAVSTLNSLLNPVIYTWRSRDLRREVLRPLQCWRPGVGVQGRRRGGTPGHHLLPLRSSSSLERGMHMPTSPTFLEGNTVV
Chain of Estrogen receptor beta (Q92731 whole entry, the tested form may be a part): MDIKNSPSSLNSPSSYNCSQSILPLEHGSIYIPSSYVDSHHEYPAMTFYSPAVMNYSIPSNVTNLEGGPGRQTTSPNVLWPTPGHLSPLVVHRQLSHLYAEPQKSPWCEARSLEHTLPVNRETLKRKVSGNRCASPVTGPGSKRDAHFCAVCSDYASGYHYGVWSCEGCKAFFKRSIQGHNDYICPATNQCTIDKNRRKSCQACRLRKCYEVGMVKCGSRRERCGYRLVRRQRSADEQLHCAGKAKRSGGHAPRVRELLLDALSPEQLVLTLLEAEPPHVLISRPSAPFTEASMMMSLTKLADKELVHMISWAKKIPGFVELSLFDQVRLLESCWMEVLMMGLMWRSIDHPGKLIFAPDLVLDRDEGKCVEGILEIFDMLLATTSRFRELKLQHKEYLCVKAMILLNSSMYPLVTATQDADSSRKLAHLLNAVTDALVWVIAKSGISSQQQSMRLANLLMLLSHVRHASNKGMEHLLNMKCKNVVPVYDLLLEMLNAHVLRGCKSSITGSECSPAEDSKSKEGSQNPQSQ
Chain of Voltage-gated inwardly rectifying potassium channel KCNH2 (Q12809 whole entry): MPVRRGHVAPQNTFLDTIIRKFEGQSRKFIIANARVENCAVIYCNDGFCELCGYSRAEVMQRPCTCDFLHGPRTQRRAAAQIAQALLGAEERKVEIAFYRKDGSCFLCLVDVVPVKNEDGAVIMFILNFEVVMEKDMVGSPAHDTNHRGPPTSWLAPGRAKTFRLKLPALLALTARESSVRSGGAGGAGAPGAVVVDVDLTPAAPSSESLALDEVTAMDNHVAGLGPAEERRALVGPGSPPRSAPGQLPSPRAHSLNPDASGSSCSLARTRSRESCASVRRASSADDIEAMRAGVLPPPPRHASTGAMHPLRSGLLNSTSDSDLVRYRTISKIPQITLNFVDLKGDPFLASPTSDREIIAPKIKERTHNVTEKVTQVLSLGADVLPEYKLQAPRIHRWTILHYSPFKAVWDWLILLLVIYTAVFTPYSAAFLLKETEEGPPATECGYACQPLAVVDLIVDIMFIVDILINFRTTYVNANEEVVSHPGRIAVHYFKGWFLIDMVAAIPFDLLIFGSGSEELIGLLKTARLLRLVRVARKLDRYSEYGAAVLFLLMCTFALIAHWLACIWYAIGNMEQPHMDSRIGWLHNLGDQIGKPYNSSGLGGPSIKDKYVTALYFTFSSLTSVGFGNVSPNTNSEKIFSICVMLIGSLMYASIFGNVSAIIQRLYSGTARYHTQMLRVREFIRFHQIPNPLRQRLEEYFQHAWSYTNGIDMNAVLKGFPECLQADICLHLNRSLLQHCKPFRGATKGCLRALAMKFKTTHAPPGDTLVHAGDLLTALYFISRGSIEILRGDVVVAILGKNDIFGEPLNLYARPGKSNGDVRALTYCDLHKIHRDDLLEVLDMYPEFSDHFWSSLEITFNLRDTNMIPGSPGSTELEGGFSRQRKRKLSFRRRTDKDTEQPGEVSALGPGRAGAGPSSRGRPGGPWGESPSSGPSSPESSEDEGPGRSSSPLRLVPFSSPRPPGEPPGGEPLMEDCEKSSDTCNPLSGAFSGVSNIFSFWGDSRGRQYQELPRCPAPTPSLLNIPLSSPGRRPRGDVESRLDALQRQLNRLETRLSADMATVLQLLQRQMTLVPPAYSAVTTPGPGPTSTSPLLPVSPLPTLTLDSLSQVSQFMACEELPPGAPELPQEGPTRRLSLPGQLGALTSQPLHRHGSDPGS
Chain of Mitogen-activated protein kinase 10 (P53779 whole entry): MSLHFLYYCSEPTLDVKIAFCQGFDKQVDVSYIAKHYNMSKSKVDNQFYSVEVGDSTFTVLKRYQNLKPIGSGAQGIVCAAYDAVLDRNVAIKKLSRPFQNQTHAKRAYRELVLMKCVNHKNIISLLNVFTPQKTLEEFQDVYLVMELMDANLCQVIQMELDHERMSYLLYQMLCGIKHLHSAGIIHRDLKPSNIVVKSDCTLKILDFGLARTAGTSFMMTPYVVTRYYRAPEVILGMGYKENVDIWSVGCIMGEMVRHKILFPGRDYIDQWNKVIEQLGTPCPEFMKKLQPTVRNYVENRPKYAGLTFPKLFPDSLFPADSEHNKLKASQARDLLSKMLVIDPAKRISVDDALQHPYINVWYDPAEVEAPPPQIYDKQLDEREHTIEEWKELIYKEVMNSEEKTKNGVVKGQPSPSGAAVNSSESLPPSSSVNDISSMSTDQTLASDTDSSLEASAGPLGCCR
Chain of Serine/threonine-protein phosphatase PP1-alpha catalytic subunit (P62136 whole entry): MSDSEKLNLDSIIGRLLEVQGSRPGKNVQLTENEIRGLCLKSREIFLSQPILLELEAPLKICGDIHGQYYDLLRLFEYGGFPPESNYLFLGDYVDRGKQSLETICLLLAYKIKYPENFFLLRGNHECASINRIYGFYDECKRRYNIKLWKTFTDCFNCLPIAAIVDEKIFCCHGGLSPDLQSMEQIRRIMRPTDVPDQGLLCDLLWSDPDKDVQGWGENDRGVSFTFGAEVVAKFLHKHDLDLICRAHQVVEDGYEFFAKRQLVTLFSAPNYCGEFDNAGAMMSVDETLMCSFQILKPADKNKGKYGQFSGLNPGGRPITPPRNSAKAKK
Chain of Estrogen receptor (P03372 whole entry): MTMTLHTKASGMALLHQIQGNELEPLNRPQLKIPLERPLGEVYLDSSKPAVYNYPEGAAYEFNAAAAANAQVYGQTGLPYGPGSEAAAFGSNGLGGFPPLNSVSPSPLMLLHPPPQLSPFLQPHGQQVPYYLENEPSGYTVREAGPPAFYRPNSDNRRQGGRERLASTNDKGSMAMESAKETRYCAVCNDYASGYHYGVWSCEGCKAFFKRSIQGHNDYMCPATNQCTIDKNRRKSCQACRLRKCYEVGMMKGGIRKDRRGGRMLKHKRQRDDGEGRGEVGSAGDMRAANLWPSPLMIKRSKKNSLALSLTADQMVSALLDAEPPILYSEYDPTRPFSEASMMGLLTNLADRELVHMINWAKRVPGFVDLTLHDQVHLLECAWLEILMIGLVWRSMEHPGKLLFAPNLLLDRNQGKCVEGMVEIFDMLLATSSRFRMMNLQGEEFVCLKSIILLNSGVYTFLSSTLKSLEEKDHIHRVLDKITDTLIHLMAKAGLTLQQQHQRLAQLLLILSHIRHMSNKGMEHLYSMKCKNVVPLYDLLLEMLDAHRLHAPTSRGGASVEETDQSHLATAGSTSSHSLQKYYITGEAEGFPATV
Chain of Ubiquitin carboxyl-terminal hydrolase BAP1 (Q92560 whole entry): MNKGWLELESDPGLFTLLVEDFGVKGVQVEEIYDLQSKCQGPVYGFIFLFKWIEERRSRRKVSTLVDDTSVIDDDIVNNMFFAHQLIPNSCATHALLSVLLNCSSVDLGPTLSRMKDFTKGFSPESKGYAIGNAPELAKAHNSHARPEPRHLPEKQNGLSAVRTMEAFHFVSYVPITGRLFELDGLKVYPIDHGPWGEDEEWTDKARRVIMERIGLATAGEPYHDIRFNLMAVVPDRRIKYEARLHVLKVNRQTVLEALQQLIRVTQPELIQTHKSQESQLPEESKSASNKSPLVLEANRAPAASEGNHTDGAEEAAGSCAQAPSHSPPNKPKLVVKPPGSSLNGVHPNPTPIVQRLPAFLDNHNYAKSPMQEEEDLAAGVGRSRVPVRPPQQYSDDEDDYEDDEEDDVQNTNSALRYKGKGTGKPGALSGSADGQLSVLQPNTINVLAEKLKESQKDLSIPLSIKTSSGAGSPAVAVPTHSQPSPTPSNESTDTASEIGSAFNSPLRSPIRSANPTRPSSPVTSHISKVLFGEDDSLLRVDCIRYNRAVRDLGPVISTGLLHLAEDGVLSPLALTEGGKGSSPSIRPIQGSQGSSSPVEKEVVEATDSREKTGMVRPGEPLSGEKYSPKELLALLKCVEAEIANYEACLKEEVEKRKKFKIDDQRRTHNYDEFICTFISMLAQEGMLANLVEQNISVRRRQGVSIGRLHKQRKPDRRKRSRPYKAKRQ
Chain of Serine/threonine-protein phosphatase (Q9BPW0 whole entry): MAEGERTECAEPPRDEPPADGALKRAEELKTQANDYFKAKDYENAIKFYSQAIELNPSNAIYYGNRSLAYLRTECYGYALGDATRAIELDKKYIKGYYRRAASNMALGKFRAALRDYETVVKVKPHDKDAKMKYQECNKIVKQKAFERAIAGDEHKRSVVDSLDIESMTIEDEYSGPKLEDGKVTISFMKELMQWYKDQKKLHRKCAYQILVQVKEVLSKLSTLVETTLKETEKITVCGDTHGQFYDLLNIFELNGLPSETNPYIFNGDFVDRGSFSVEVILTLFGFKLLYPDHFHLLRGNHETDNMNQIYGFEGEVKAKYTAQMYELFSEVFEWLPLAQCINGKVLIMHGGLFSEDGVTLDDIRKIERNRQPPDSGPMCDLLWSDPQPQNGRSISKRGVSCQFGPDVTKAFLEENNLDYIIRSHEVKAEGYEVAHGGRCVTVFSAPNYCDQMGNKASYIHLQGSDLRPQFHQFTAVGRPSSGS

CC(C)c1nc2sc3c(NCc4ccco4)ncnc3c2c2c1COC(C)(C)C2
EC50 [1]: 19.2 µM (active)
EC50 [2]: > 120 µM (not active)
EC50 [3]: > 120 µM (not active)
IC50 [4]: > 50 µM (active)
CC50 [5]: > 40 µM (active)
EC50 (HEK293 [6]): > 59.6 µM (inactive)
EC50 (HEK293 [7]): > 59.6 µM (inactive)

COc1ccc(C(=O)Nc2ccccc2C(=O)O)cc1Cl
EC50 [8]: 13 µM (active)
IC50 (Hexokinase): > 25 µM (inactive)

COc1ccc(C2C(C#N)=C(N)SC(N)=C2C#N)cc1OC
IC50 [9]: > 31 µM (not active)

CCOC(=O)c1ccc(NC(=O)CSc2nc(C)cc(=O)[nH]2)cc1
IC50 (Leucine aminopeptidase): 11.8 µM (active)
IC50 [10]: 23.3 µM (active)
IC50 (Estrogen receptor): 3.06 µM (active)
IC50 (Estrogen receptor beta): < 0.023 µM (not active)
IC50 [11]: 2.67 µM (active)

CC(C)CNC(=O)c1c(N)n(Cc2ccc3c(c2)OCO3)c2nc3ccccc3nc12
IC50 [12]: > 67 µM (not active)
EC50 [13]: 11.9 µM (active)
IC50 [14]: 17.9 µM (not active)
EC50 [15]: 16.3 µM (active)
EC50 [16]: 2.61 µM (active)
EC50 (Protein RecA): > 380 µM (inconclusive)

CCOC(=O)N1CCN(C(=O)CSCC(=O)Nc2nc(-c3ccc(-c4ccccc4)cc3)cs2)CC1
IC50 [17]: 2.47 µM (active)
AC50 (INS1): 4.63 µM (active)
IC50 [18]: 5.66 µM (active)

COc1ccccc1-c1nnc(Sc2nc([N+](=O)[O-])nn2C)o1
IC50 [19]: 1.52 µM (active)
EC50 [20]: 0.556 µM (active)
EC50 [21]: 17.5 µM (active)
CC50 [22]: 13.6 µM (active)
CC50 [23]: 17.5 µM (active)
IC50 (cells): 1.95 µM (active)
AC50 (HEK293 [24]): 4.37 µM (active)

c1ccc2c(NCCCN3CCCCC3)cc(-c3ccncc3)nc2c1
IC50 [25]: 2.48 µM (active)
IC50 [26]: 6.49 µM (active)

From ChEMBL document CHEMBL1201862, “PubChem BioAssay data set” (2004)
